Like-named read-outs stand apart in the source and are kept apart here.
Tests used:
Assay type in all cases: cell-based
[1] = system: L1210 leukemia cells; test: Growth inhibition against L1210 leukemia cells in vitro; conditions: for IC50: Mus musculus
Procedure: In addition to the B16 melanoma cell assay summarized in Table I, compounds 1a-e, 5 and 7 were evaluated for growth inhibitory activity against L1210 leukemia cells. Stock solutions of the compounds were prepared in 95% ethanol, and serial dilutions of drug were prepared in ethanol such that 50 μl of drug solution added to 10 ml of cell suspension gave the desired final concentration. L1210 cells in exponential growth were suspended in Fischer's medium supplemented with 10% horse serum, 1% glutamine, and 1% antibiotic-antimycotic solution to give 10-ml volumes of cell suspension at a final density of 3-6×10^4 /ml. Appropriate volumes of the solutions of each compound were transferred to the cell suspensions, and incubation was continued for 2, 8, 24, or 48 hr. The cells were spun down, resuspended in fresh drug-free medium, and returned to the incubator, then counted with a Coulter Counter 48 hr after treatment with the compound.
^a Data represents an average of at least two experiments; L1210 cell
were treated with compound for 2, 8, 24 and 48 hr. The drugcontaining
medium was removed, cells were washed, complete medium was added, and the
cells were incubated for 48 hr total. Cell counts were obtained 48 hr
after the start of treatment.

[2] = system: B16 melanoma cells; test: Cytotoxicity against B16 melanoma cells (clonogenic assay); conditions: read-out: LC-99 (concentration of compound required to kill 99% of B16 melanoma cells)
Procedure: ^a Concentration of compound required to kill 99% of B16 melanoma
cells in a clonogenic assay. Cells were treated with the compound for 2
B16 cells in exponential growth (2-3×10^6 cells in 10 ml of serum-free MEM medium) were treated with drug for 2 hr. The cells were separated, washed, and resuspended in MEM medium supplemented with 10% fetal bovine serum. The cells were plated in 60-mm culture dishes at a density of 50-50,000 cells/plate (depending upon the drug concentration used initially) and then incubated for 8 days in a CO2 incubator at 37° C. The colonies were fixed and stained with 0.5% crystal violet in ethanol and counted.

[3] = system: L1210 leukemia cells; test: Reversal of L1210 growth inhibition by addition of thymidine; conditions: 5 μM thymidine
From the text: The relationship between potency and alkylating activity was confirmed by the synthesis and evaluation of the non-alkylating morpholino phosphoramidate 1e.

[4] = Mus musculus, B16, 2 hr treatment
[5] = L1210, 48 h, read-out: IC50, treatment time 48 hr
[6] = L1210, read-out: IC50, treatment time 2 hr
[7] = L1210, read-out: IC50, treatment time 8 hr
[8] = L1210, read-out: IC50, treatment time 24 hr

| Compound | IC99 [2, 4] [µM] | IC50 [1, 5] [nM] | IC50 [1, 6] [nM] | IC50 [1, 7] [nM] | IC50 [1, 8] [nM] | also measured |
| --- | --- | --- | --- | --- | --- | --- |
| O=c1[nH]cc(F)c(=O)[nH]1 [5-Fluorouracil, reference compound] |  |  |  |  |  | IC50 ([1]; L1210, 2 hr treatment, counted 48 hr after start of treatment, average of at least two experiments, read-out: IC50, treatment time 2 hr): 2200 nM; IC50 ([1]; L1210, 8 hr treatment, counted 48 hr after start of treatment, average of at least two experiments, read-out: IC50, treatment time 8 hr): 630 nM; IC50 ([1]; L1210, 24 hr treatment, counted 48 hr after start of treatment, average of at least two experiments, read-out: IC50, treatment time 24 hr): 220 nM; IC50 ([1]; L1210, 48 hr treatment, average of at least two experiments, read-out: IC50, treatment time 48 hr): 125 nM |
| CC1CC(C)(C)NC(CCOP(=O)(OC[C@H]2O[C@@H](n3cc(F)c(=O)[nH]c3=O)C[C@@H]2O)N(C)CCBr)O1 (some centres unmarked) [Compound 1a, 5-FIuoro-2'-deoxy-5'-uridyl-[2-(4,4,6-trimethyltetrahydro-1,3-oxazin-2-yl)ethyl]-N-methyl-N-(2-bromoethyl)phosphoramidate] | 100 | 2.5 | 120 | 50 | 18 | inhibitory activity on addition of thymidine [3]: completely blocked; inhibition of cell proliferation ([1]; 1a: 2 hr contact time, iodo and tosyl analogs: compared with 1a): potent inhibitor of cell proliferation; potency relative to 5-FU (more potent) ([1]; treatment times of 2, 8, 24, and 48 hr): 1-2 orders of magnitude |
| Cc1ccc(S(=O)(=O)OCCN(C)P(=O)(OCCC2NC(C)(C)CC(C)O2)OC[C@H]2O[C@@H](n3cc(F)c(=O)[nH]c3=O)C[C@@H]2O)cc1 (some centres unmarked) [Compound 1b] | 156 | 2.5 | 160 | 60 | 19 |  |
| CC1CC(C)(C)NC(CCOP(=O)(OC[C@H]2O[C@@H](n3cc(F)c(=O)[nH]c3=O)C[C@@H]2O)N(C)CCCl)O1 (some centres unmarked) [Compound 1c] | 308 | 3.5 | 300 | 160 | 25 |  |
| CC1CC(C)(C)NC(CCOP(=O)(OC[C@H]2O[C@@H](n3cc(F)c(=O)[nH]c3=O)C[C@@H]2O)N(C)CCI)O1 (some centres unmarked) [Compound 1d, 5-Fluoro-2'deoxy-5'-uridyl-[2-(4,4,6-trimethyltetrahydro-1,3-oxazin-2-yl)ethyl]-N-methyl-N-(2-iodoethyl)phosphoramidate] | 95 | 2 | 190 | 75 | 6 |  |
| CC1CC(C)(C)NC(CCOP(=O)(OC[C@H]2O[C@@H](n3cc(F)c(=O)[nH]c3=O)C[C@@H]2O)N2CCOCC2)O1 (some centres unmarked) [Compound 1e, 5-Fluoro-2'-deoxy-5'-uridyl-[2-(4,4,6-trimethyltetrahydro-1,3-oxazin-2-yl)ethyl]-morpholinophosphoramidate] | 216 | 150 | 15000 | 5000 | 900 | potency compared with 5-FU ([1]; long treatment times): comparable in potency to 5-FU |
| CC1CC(C)(C)NC(CCOP(=O)(OC[C@H]2O[C@@H](n3ccc(=O)[nH]c3=O)C[C@@H]2O)N2CCOCC2)O1 (some centres unmarked) [Compound 2, 2'-Deoxy-5'-uridyl-[2-(4,4,6-trimethyltetrahydro-1,3-oxazin-2-yl)ethyl]morpholinophosphoramidate] | 190 |  |  |  |  |  |
| Cc1cn([C@H]2C[C@H](O)[C@@H](COP(=O)(OCCC3NC(C)(C)CC(C)O3)N3CCOCC3)O2)c(=O)[nH]c1=O (some centres unmarked) [Compound 3, Thymidyl-[2-(4,4,6-trimethyltetrahydro-1,3-oxazin-2-yl)ethyl]morpholinophosphoramidate] | 152 |  |  |  |  |  |
| CC1CC(C)(C)NC(CCOP(=O)(OC[C@H]2O[C@@H](n3cc(F)c(=O)[nH]c3=O)C[C@@H]2O)N2CCCCC2)O1 (some centres unmarked) [Compound 4, 5-Fluoro-2'-deoxy-5'-uridyl-[2-(4,4,6-trimethyltetrahydro-1,3-oxazin-2-yl)ethyl]piperidinophosphoramidate] | 98 |  |  |  |  |  |
| CC1CC(C)(C)NC(CCOP(=O)(OC[C@H]2O[C@@H](n3ccc(=O)[nH]c3=O)C[C@@H]2O)N(C)CCBr)O1 (some centres unmarked) [Compound 5, 2'-Deoxy-5'-uridyl-[2-(4,4,-trimethyltetrahydro-1,3-oxazin-2-yl)ethyl]-N-methyl-N-(2-bromoethyl)phosphoramidate] | 318 | 425 | 20000 | 8200 | 1300 |  |
| Cc1cn([C@H]2C[C@H](O)[C@@H](COP(=O)(OCCC3NC(C)(C)CC(C)O3)N(C)CCBr)O2)c(=O)[nH]c1=O (some centres unmarked) [Compound 7, Thymidyl-[2-(4,4,-trimethyltetrahydro-1,3-oxazin-2-yl)ethyl]-N-methyl-N-(2-bromoethyl)phosphoramidate] | 165 | 590 | 13000 | 10500 | 7000 |  |
| Cc1cn([C@H]2C[C@H](O)[C@@H](COP(=O)(OCCC3NC(C)(C)CC(C)O3)N(CCBr)CCBr)O2)c(=O)[nH]c1=O (some centres unmarked) [Compound 8, Thymidyl-[2-(4,4,6-trimethyltetrahydro-1,3-oxazin-2-yl)ethyl]bis-(2-bromoethyl)phosphoramidate] |  |  |  |  |  | IC99 ([2]; 2 hr treatment): 120 µM |

Source: patent publication US5233031A, “Phosphoramidate analogs of 2'-deoxyuridine” (University of Rochester, priority 1991, dated 1993)
